Assay [1] has as its target ABL1 (Homo sapiens (Human), UniProt P00519). The experiment in a line: In vitro kinase panel (SelectScreen). Type of assay: biochemical.
Protocol: (§3) In vitro kinase screen and competitive binding assay. […] 11-point Kd curves were determined for hits identified during the initial screen.
Assay [2] has as its target BRAF (Homo sapiens (Human), UniProt P15056). The assay is described as follows: In vitro kinase panel (SelectScreen). In kind it is biochemical.
Protocol: as §3
Assay [3] deals with CSF1R (Homo sapiens (Human), UniProt P07333). The experiment in a line: In vitro kinase panel (SelectScreen). In kind it is biochemical.
Protocol: as §3
In assay [4] the target is EGFR L858R (Homo sapiens (Human), UniProt P00533, L858R). The assay is described as follows: In vitro kinase panel (SelectScreen). Type of assay: biochemical.
Chain of EGFR L858R (P00533 25-1210 L858R): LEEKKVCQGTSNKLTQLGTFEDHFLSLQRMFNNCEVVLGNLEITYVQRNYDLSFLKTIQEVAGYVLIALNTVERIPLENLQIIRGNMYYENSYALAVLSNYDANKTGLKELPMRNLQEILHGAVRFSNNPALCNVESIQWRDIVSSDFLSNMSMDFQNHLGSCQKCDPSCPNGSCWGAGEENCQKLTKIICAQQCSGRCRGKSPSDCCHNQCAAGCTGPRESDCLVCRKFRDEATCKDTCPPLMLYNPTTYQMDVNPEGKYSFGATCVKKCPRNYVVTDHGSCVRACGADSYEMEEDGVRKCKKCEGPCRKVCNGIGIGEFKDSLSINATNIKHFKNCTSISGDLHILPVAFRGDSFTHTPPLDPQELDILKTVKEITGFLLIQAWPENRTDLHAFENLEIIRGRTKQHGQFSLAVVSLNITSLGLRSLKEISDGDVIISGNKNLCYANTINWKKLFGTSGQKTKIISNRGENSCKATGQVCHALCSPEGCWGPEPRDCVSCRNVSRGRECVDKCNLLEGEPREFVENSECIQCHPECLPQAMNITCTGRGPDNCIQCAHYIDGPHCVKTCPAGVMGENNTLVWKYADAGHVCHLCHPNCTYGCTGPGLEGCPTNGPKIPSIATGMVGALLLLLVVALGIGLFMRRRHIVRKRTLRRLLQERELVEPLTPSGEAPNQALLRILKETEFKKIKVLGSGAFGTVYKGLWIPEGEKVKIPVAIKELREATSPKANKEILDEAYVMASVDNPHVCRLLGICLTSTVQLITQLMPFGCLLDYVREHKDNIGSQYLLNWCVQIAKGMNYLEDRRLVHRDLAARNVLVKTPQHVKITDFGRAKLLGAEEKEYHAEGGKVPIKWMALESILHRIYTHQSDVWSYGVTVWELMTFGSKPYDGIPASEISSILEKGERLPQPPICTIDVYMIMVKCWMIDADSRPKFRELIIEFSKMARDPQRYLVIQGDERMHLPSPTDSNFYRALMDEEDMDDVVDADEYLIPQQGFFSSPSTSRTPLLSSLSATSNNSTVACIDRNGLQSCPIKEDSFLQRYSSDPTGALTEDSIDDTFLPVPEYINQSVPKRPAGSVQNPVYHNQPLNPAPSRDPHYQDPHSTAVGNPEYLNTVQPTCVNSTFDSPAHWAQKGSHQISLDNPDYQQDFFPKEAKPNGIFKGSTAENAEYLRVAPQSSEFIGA
Protocol: as §3
The target of assay [5] is EGFR L861Q (Homo sapiens (Human), UniProt P00533, L861Q). The experiment in a line: In vitro kinase panel (SelectScreen). Type of assay: biochemical.
Chain of EGFR L861Q (P00533 25-1210 L861Q): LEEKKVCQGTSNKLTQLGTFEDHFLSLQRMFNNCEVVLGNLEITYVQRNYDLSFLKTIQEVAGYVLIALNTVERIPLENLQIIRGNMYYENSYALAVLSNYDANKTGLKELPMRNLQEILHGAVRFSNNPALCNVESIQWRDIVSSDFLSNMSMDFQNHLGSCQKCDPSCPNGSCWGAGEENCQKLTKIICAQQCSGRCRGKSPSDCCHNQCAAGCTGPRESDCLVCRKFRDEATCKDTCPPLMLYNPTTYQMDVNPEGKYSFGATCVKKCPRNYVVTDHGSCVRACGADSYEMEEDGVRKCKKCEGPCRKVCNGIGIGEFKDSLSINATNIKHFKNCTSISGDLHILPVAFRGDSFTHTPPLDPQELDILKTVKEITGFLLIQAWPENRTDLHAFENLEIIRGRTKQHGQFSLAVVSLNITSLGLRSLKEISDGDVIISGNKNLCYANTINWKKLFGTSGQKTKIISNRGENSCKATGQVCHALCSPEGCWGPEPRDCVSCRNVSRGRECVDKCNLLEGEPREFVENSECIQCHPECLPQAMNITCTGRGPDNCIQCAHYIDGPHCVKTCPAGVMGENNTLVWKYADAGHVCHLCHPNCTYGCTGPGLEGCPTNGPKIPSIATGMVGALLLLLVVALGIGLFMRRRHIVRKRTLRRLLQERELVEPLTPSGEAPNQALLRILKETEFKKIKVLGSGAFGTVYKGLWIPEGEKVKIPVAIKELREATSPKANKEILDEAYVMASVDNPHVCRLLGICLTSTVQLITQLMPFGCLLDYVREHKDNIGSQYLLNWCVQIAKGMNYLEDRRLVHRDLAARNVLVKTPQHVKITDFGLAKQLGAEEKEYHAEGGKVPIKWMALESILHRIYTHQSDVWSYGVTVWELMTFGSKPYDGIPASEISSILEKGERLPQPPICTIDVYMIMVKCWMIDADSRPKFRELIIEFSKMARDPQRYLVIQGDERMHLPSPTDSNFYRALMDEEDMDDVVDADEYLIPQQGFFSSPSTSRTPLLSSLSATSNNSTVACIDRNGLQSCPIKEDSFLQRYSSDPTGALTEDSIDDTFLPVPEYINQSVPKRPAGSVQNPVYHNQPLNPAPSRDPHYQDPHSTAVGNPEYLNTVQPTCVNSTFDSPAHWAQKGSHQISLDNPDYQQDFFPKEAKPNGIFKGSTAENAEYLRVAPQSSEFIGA
Protocol: as §3
The target in assay [6] is KDR (VEGFR2) (Homo sapiens (Human), UniProt P35968). The assay is described as follows: In vitro kinase panel (SelectScreen). Type of assay: biochemical.
Protocol: as §3
The target of assay [7] is FLT3 (Homo sapiens (Human), UniProt P36888). The experiment in a line: KINOMEscan competitive binding assay.
Chain of FLT3 (P36888 27-993): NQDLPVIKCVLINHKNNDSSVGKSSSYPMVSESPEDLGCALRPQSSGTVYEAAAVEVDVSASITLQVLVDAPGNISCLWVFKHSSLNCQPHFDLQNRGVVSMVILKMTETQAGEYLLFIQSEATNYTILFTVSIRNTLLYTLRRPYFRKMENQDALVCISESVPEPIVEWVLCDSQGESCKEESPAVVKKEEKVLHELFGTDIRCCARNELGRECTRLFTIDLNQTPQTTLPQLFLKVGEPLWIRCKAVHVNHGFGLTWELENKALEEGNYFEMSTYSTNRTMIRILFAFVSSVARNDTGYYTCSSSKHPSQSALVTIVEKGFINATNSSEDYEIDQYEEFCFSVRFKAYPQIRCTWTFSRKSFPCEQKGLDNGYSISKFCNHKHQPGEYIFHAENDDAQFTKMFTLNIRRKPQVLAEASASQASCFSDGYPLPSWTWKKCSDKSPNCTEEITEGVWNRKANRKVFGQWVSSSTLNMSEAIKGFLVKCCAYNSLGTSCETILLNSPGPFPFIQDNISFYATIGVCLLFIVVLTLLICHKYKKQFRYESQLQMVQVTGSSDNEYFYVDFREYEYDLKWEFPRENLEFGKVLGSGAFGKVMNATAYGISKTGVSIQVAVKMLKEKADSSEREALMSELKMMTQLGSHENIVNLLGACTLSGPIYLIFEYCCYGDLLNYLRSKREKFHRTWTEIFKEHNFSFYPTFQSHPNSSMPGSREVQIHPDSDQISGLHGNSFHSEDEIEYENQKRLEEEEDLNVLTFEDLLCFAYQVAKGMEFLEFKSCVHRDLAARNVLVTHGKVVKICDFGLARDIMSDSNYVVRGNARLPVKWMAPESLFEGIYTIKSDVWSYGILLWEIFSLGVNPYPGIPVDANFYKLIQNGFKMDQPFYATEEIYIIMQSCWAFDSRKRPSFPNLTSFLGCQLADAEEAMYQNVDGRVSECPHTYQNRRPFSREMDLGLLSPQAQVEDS
Protocol: (§4) In vitro kinase screen and competitive binding assay. […] For the competitive binding assay, test compounds were screened at 10 μM against 70 diverse kinase targets for competitive binding using the KINOMEscan™ technology (Ambit Biosciences) (Karaman, et al. (2008) Nature biotechnology 26:127-132). 11-point Kd curves were determined for hits identified during the initial screen.
Assay [8] concerns the target KIT (Homo sapiens (Human), UniProt P10721). The assay is described as follows: KINOMEscan competitive binding assay.
Protocol: as §4
The target of assay [9] is PDGFRA (Homo sapiens (Human), UniProt P16234). The assay is described as follows: KINOMEscan competitive binding assay.
Protocol: as §4
Assay [10] addresses PDGFRB (Homo sapiens (Human), UniProt P09619). The assay is described as follows: KINOMEscan competitive binding assay.
Protocol: as §4
Assay [11] concerns VSMCs. The assay is described as follows: XTT viability assay in VSMCs. The settings on record: 72 h, full growth medium containing 10% FBS; read-out: EC50, VSMC viability. In kind it is cell-based, human. The procedure:
(§1) FIG. 1A-1F illustrate molecular modeling and assay screening to compounds for dual targeting of PDGFRβ and RAF. (FIG. 1A) Molecular modeling of the amino-triazole based small molecules in PDGFRβ and RAF, respectively. […] A homology model of PDGFRβ was created with a structurally-related family member (VEGFR2, PDB 1y6b). […] To autophosphorylation, immunoblots were carried out with a phospho-tyrosine antibody. Membranes were stripped and reprobed for total PDGFRβ levels. […] (FIG. 1D) Structure activity relationships of the amino-triazole based small molecules comparing both PDGFRβ and B-RAF. […] Curves represent the average of 3 separate experiments, error bars represent ±SEM.
For XTT assays, cells were grown in 96-well plates overnight and all assays were conducted in growth medium will full serum and additives. […] Dose-response curves were plotted using GraphPad Prism software and EC50s were calculated using this program.

Assay [12] addresses B-RAF/C-RAF heterodimerization (Homo sapiens (Human), UniProt P15056). The assay is described as follows: B-RAF/C-RAF heterodimerization in HUVECs (immunoprecipitation/Western). In kind it is cell-based. The settings on record: ECs stimulated with bFGF or VEGF.
The target in assay [13] is FGFR2 (Homo sapiens (Human), UniProt P21802). The assay is described as follows: KINOMEscan competitive binding assay. The settings on record: 10 uM.
Protocol: For the competitive binding assay, test compounds were screened at 10 μM against 70 diverse kinase targets for competitive binding using the KINOMEscan™ technology (Ambit Biosciences) (Karaman, et al. (2008) Nature biotechnology 26:127-132). 11-point Kd curves were determined for hits identified during the initial screen.
The target of assay [14] is MYO3A (Homo sapiens (Human), UniProt Q8NEV4). The assay is described as follows: KINOMEscan competitive binding assay. The settings on record: 10 uM.
Assay [15] concerns CHL-1. The assay is described as follows: Tumor cell viability. In kind it is cell-based. The settings on record: Melanoma CHL-1. The procedure: (§2) For XTT assays, cells were grown in 96-well plates overnight and all assays were conducted in growth medium will full serum and additives. Compounds were serially diluted in DMSO and then further diluted into the medium to give the appropriate concentration while minimizing precipitation associated with serial diluting in medium alone Inhibitors were added for 72 h and cell viability was quantified at 450 nm after the addition of 1 mg/ml XTT solution (Sigma-Aldrich) in phenol-red free DMEM medium containing […] (Sigma-Aldrich). Dose-response curves were plotted using GraphPad Prism software and EC50s were calculated using this program.

For assay [16], the system named is HT29. The assay is described as follows: Tumor cell viability. The settings on record: Colon HT29, B-RAF V600E. In kind it is cell-based. As for the experimental part: as §2
Assay [17] relates to MCF7. The experiment in a line: Tumor cell viability. Type of assay: cell-based. The settings on record: Breast MCF7, PI3K. As for the experimental part:
as §2

For assay [18], the system named is R40P. The experiment in a line: Tumor cell viability. Type of assay: cell-based. The note with it: Pancreatic (mouse spontaneous model) R40P, K-Ras. The procedure: as §2
Assay [19] has as its system SK-MEL-28. The experiment in a line: Tumor cell viability. Type of assay: cell-based. The note with it: Melanoma SK-MEL-28, B-RAF V600E. As for the experimental part:
as §2

In assay [20] the test system is SK-MEL-2. The experiment in a line: Tumor cell viability. The settings on record: Melanoma SK-MEL-2, N-Ras. In kind it is cell-based. As for the experimental part: as §2
The subject of assay [21] is HCT116. The experiment in a line: Tumor cell viability. Type of assay: cell-based, human. The settings on record: Colon HCT116, K-Ras. The procedure:
as §2

Assay [22] deals with MDA-MB231. The experiment in a line: Tumor cell viability. In kind it is cell-based, human. The note with it: Breast AC MDA-MB231, B-RAF/Ras. As for the experimental part:
as §2

For assay [23], the system named is B-RAF (V600E). The assay is described as follows: ERK phosphorylation in 1205Lu melanoma cells expressing B-RAF V600E. In kind it is cell-based, human. The settings on record: 10 μM, 1 h.
The test system of assay [24] is MEK S298. The assay is described as follows: PAK-mediated MEK S298 phosphorylation in endothelial cells. The settings on record: HUVECs stimulated with bFGF or VEGF, 5 μM. In kind it is cell-based, human. The procedure: as §1
Following stimulation with bFGF, VEGFA or PDGF-BB, cells were washed 1× with ice-cold PBS and lysed in RIPA buffer. For the PDGFRβ autophosphorylation assay in VSMCs, 500 μg of protein from lysates was incubated with 3 μg of anti-PDGFRβ (sc-432, Santa Cruz Biotechnology) for 1 h at 4° C. and subsequently tumbled overnight with protein A/G beads (Pierce) for immunoprecipitation. […] HRP conjugated primary or secondary Abs were detected with SuperSignal ECL (Pierce). […]

Assay [25] relates to NCI60 panel. The experiment in a line: NCI60 panel growth inhibition. Type of assay: cell-based. The settings on record: average across NCI60 panel; read-out: average growth inhibitory concentration (GI50).

Experimental findings from patent US9260417B2, “Therapeutic methods and compositions involving allosteric kinase inhibition” (AMITECH THERAPEUTIC SOLUTIONS, INC., priority 2010, dated 2016) are described below.

A value given as a limit tells only on which side of the number the result lay.

Chain of KIT (P10721 26-976): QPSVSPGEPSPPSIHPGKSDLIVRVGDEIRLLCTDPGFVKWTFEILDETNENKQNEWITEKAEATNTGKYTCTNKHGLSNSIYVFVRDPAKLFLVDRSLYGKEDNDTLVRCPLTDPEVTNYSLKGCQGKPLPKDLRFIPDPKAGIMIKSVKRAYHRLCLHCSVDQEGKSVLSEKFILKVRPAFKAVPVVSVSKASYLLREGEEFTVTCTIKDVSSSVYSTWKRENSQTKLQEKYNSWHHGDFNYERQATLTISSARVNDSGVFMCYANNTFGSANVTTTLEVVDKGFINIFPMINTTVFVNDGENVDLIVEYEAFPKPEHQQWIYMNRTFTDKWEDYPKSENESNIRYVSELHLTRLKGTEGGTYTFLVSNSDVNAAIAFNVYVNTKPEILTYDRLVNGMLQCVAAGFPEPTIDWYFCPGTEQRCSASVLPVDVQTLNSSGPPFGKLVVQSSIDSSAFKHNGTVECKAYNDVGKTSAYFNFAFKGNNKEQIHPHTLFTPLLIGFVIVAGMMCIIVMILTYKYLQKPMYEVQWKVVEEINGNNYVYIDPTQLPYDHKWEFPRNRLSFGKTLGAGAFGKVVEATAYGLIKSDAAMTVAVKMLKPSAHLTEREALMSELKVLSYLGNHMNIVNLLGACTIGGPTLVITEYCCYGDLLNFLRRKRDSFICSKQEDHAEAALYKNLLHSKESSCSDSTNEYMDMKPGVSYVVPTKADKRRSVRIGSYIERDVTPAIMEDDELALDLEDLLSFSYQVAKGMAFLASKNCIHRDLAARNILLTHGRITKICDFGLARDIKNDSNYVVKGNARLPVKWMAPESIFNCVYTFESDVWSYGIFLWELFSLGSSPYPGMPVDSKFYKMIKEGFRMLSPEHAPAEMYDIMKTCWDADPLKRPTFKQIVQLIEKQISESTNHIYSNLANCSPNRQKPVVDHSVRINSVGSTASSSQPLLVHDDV
Chain of BRAF (P15056 whole entry): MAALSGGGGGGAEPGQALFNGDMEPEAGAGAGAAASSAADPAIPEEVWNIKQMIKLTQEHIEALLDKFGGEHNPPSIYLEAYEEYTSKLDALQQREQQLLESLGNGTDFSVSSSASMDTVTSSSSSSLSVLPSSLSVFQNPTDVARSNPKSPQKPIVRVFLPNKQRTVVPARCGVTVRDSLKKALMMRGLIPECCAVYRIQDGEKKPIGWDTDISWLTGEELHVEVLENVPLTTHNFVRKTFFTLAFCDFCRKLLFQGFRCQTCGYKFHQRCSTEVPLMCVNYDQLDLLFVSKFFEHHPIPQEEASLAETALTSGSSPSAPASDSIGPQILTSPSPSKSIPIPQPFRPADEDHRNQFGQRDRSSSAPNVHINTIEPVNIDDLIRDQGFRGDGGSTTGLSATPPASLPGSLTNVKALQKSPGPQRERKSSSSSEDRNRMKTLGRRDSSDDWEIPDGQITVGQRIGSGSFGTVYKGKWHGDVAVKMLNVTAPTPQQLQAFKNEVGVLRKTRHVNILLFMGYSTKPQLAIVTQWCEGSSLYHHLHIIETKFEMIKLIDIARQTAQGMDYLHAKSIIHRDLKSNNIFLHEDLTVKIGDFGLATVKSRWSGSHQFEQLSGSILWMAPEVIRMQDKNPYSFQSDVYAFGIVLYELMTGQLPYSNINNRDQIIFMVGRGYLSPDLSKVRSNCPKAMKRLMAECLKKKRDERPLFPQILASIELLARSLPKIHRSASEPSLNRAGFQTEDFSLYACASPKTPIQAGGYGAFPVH
Chain of B-RAF/C-RAF heterodimerization (P15056 whole entry, one chain of several): as the sequence (P15056 whole entry) above

Consider `Nc1cc(Oc2ccc(-c3nnc(Nc4cccc(C(F)(F)F)c4)[nH]3)cc2)ncn1` [Compound 3], for which the “% Inhibition at 10 μM” value in assay [1] is 4%; in assay [2], 17%; in assay [3], 79%; in assay [4] it was −3%; in [5], −1%; in assay [6], 31%. For the same molecule, the Kd in [7] was determined as 1.4 nM; in assay [8], 3.7 nM; in assay [9] (PDGFRα) it was 32 nM; in assay [10] (PDGFRβ) it was 40 nM. In addition, the EC50 in [11] was determined as 15000 nM. Moreover, the B-RAF/C-RAF heterodimer formation result in assay [12] is “had no effect”.

On to `CSc1nc(N)cc(Oc2ccc(-c3nnc(Nc4cccc(C(F)(F)F)c4)[nH]3)cc2)n1` [Compound 6], for which the “% Inhibition at 10 μM” value in assay [1] is recorded as 3%; in [2] it was −1%; in assay [3] it was 23%; in [4], −10%; in [5], −4%; in [6], 16%. Further, the “% Control” value in assay [13] worked out at 100%; in assay [7] (10 uM), 2.8%; in assay [8] (10 uM), 0%; in assay [14], 94%; in assay [9] (10 uM, PDGFRA) it was 0.25%; in assay [10] (10 uM, PDGFRB), 0.5%. Moreover, the EC50 in assay [15] amounted to 100 nM; in assay [16] it was 620 nM; in assay [17] it was 680 nM; in assay [18], 660 nM; in [19] it was 400 nM; in assay [20] it was 140 nM. Besides, the figures for the EC50 in [21], in [22] and in assay [11] were 400 nM, 480 nM and 590 nM, respectively. In addition, the “phosphorylation of ERK T202/Y204 in cells expressing constitutively active B-RAF (V600E)” value in [23] is “completely disrupted”. For the same molecule, the “PAK-mediated phosphorylation on MEK S298” value in assay [24] is recorded as “did not block”. Also, the B-RAF/C-RAF heterodimer formation result in assay [12] is on record as “completely inhibited”. Moreover, the GI50 in [25] was 490 nM.

Turning to `CNC(=O)c1cc(Oc2ccc(NC(=O)Nc3ccc(Cl)c(C(F)(F)F)c3)cc2)ccn1` [sorafenib, reference compound], the EC50 in assay [15] (Homo sapiens) was 6100 nM; in [16] (Homo sapiens, HT-29), greater than 20000 nM; in [17] (Homo sapiens), greater than 20000 nM; in assay [18] it was 9430 nM; in assay [19] (Homo sapiens), 17600 nM; in assay [20] (Homo sapiens), 14300 nM. Also, the EC50 was 8210 nM in assay [21] (Homo sapiens, HCT-116) and greater than 10000 nM in assay [22] (Homo sapiens, MDA-MB-231).
